In US5278146A, “CRF analogs” (The Salk Institute for Biological Studies, priority 1992, dated 1994):
Where no end group is shown, it is not given here. [ ]: non-standard residue; d: D form. Nle = CCCC[C@H](N)C(=O)O; Nva = CCC[C@H](N)C(=O)O

How the values were obtained:
[1] = test system: cultured rat pituitary cells; assay: Secretion of ACTH and β-endorphin by cultured rat pituitary cells; format: cell-based; settings: for Stimulation of the secretion of ACTH and β-END-LI: general procedure of Example III
Experimental: The synthetic peptide [D-Glu^20 ]-oCRF is examined for its effects on the secretion of ACTH and β-endorphin vitro and was also in vivo. The potency of synthetic [D-Glu^20 ]-oCRF to stimulate the secretion of ACTH and β-endorphin by cultured rat pituitary cells is measured using the procedure as generally set forth in Endocrinology, 91, 562 (1972) and compared against synthetic oCRF.

[2] = In vivo testing (procedure of C. Rivier et al., Science 218, 377): duration of potency and blood pressure; settings: for Lowering of blood pressure: administered peripherally (where stated)
[3] = test system: ACTH and β-endorphin-like activities (β-END-LI); settings: in vitro and in vivo; cited from earlier work
[4] = injected peripherally, e.g. intravenously; cited from earlier work

Row | Compound | Stimulation of the secretion of ACTH and β-END-LI [1] | Lowering of blood pressure [2] | also measured
1 | CC[C@H](C)[C@H](NC(=O)[C@@H](NC(=O)[C@H](CC(=O)O)NC(=O)[C@H](CC(C)C)NC(=O)[C@H](CC(C)C)NC(=O)[C@H](CC(C)C)NC(=O)[C@H](CCCNC(=N)N)NC(=O)[C@H](CC(N)=O)NC(=O)[C@H](CC(N)=O)NC(=O)[C@H](C)NC(=O)[C@H](C)NC(=O)[C@H](CCC(N)=O)NC(=O)[C@H](CCC(=O)O)NC(=O)[C@H](CCCCN)NC(=O)[C@H](CCC(=O)O)NC(=O)[C@H](CCCCN)NC(=O)[C@H](CCC(=O)O)NC(=O)[C@H](CCC(N)=O)NC(=O)[C@H](CCCCN)NC(=O)[C@H](CCCNC(=N)N)NC(=O)[C@H](C)NC(=O)[C@@H](CCC(=O)O)NC(=O)[C@@H](NC(=O)[C@H](CCSC)NC(=O)[C@H](CCCCN)NC(=O)[C@H](CCCNC(=N)N)NC(=O)[C@H](CC(C)C)NC(=O)[C@H](CC(C)C)NC(=O)[C@H](CCC(=O)O)NC(=O)[C@@H](Cc1ccccc1)NC(=O)[C@H](CO)NC(=O)[C@H](CC(C)C)NC(=O)[C@H](CC(=O)O)NC(=O)[C@@H](NC(=O)[C@H](CO)NC(=O)[C@@H](NC(=O)[C@@H]1CCCN1C(=O)[C@@H]1CCCN1C(=O)CNC(=O)[C@@H]1CCC(=O)N1)[C@@H](C)CC)[C@@H](C)CC)[C@@H](C)CC)[C@@H](C)CC)C(N)=O | stimulates the secretion of ACTH and β-END-LI | very significant lowering of blood pressure | –
2 | CCCC[C@H](NC(=O)[C@@H](CCC(=O)O)NC(=O)[C@H](CC(C)C)NC(=O)[C@@H](NC(=O)[C@H](CCC(=O)O)NC(=O)[C@H](CCCNC(=N)N)NC(=O)[C@H](CC(C)C)NC(=O)[C@H](CC(C)C)NC(=O)[C@H](Cc1c[nH]cn1)NC(=O)[C@H](Cc1ccccc1)NC(=O)[C@@H](NC(=O)[C@H](CC(C)C)NC(=O)[C@H](CC(=O)O)NC(=O)[C@H](CC(C)C)NC(=O)[C@H](CO)NC(=O)[C@@H](NC(=O)[C@@H]1CCCN1C(=O)[C@@H]1CCCN1C(=O)[C@H](CCC(=O)O)NC(=O)[C@H](CCC(N)=O)NC(=O)[C@@H](N)CO)[C@@H](C)CC)[C@@H](C)O)C(C)C)C(=O)N[C@H](C(=O)N[C@@H](CCCCN)C(=O)N[C@@H](C)C(=O)N[C@@H](CC(=O)O)C(=O)N[C@@H](CCC(N)=O)C(=O)N[C@@H](CC(C)C)C(=O)N[C@@H](C)C(=O)N[C@@H](CCC(N)=O)C(=O)N[C@@H](CCC(N)=O)C(=O)N[C@@H](C)C(=O)N[C@H](Cc1c[nH]cn1)C(=O)N[C@@H](CO)C(=O)N[C@@H](CC(N)=O)C(=O)N[C@@H](CCCNC(=N)N)C(=O)N[C@@H](CCCCN)C(=O)N[C@@H](CC(C)C)C(=O)N[C@@H](CC(C)C)C(=O)N[C@@H](CC(=O)O)C(=O)N[C@H](C(=O)N[C@@H](C)C(N)=O)[C@@H](C)CC)[C@@H](C)O [[D-Glu^20, Nle^21, D-His^32]-oCRF] | stimulates the secretion of ACTH and β-END-LI | very significant lowering of blood pressure | –
3 | CCCC[C@H](NC(=O)[C@@H](CCC(=O)O)NC(=O)[C@H](CC(C)C)NC(=O)[C@@H](NC(=O)[C@H](CCC(=O)O)NC(=O)[C@H](CCCNC(=N)N)NC(=O)[C@H](CC(C)C)NC(=O)[C@H](CC(C)C)NC(=O)[C@H](Cc1c[nH]cn1)NC(=O)[C@H](Cc1ccccc1)NC(=O)[C@@H](NC(=O)[C@H](CC(C)C)NC(=O)[C@H](CC(=O)O)NC(=O)[C@H](CC(C)C)NC(=O)[C@H](CO)NC(=O)[C@@H](NC(=O)[C@@H]1CCCN1C(=O)[C@@H]1CCCN1C(=O)[C@H](CCC(=O)O)NC(=O)[C@H](CCC(N)=O)NC(=O)[C@@H](N)CO)[C@@H](C)CC)[C@@H](C)O)C(C)C)C(=O)N[C@H](C(=O)N[C@@H](CCCCN)C(=O)N[C@@H](C)C(=O)N[C@@H](CC(=O)O)C(=O)N[C@@H](CCC(N)=O)C(=O)N[C@@H](CC(C)C)C(=O)N[C@@H](C)C(=O)N[C@@H](CCC(N)=O)C(=O)N[C@@H](CCC(N)=O)C(=O)N[C@@H](C)C(=O)N[C@@H](Cc1c[nH]cn1)C(=O)N[C@@H](CO)C(=O)N[C@@H](CC(N)=O)C(=O)N[C@@H](CCCNC(=N)N)C(=O)N[C@@H](CCCCN)C(=O)N[C@@H](CC(C)C)C(=O)N[C@@H](CC(C)C)C(=O)N[C@@H](CC(=O)O)C(=O)N[C@H](C(=O)N[C@@H](C)C(N)=O)[C@@H](C)CC)[C@@H](C)O [[D-Glu^20, Nle^21]-oCRF] | stimulates the secretion of ACTH and β-END-LI | very significant lowering of blood pressure | –
4 | CC[C@H](C)[C@H](NC(=O)[C@H](CC(=O)O)NC(=O)[C@H](CC(C)C)NC(=O)[C@H](CC(C)C)NC(=O)[C@H](CCCCN)NC(=O)[C@H](CCCNC(=N)N)NC(=O)[C@H](CC(N)=O)NC(=O)[C@H](CO)NC(=O)[C@H](Cc1c[nH]cn1)NC(=O)[C@H](C)NC(=O)[C@H](CCC(N)=O)NC(=O)[C@H](CCC(N)=O)NC(=O)[C@H](C)NC(=O)[C@H](CC(C)C)NC(=O)[C@H](CCC(N)=O)NC(=O)[C@H](CC(=O)O)NC(=O)[C@H](C)NC(=O)[C@H](CCCCN)NC(=O)[C@@H](NC(=O)[C@H](CCSC)NC(=O)[C@@H](CCC(=O)O)NC(=O)[C@H](CC(C)C)NC(=O)[C@@H](NC(=O)[C@H](CCC(=O)O)NC(=O)[C@H](CCCNC(=N)N)NC(=O)[C@H](CC(C)C)NC(=O)[C@H](CC(C)C)NC(=O)[C@H](Cc1c[nH]cn1)NC(=O)[C@H](Cc1ccccc1)NC(=O)[C@@H](NC(=O)[C@H](CC(C)C)NC(=O)[C@H](CC(=O)O)NC(=O)[C@H](CC(C)C)NC(=O)[C@H](CO)NC(=O)[C@@H](NC(=O)[C@@H]1CCCN1C(=O)[C@@H]1CCCN1C(=O)[C@H](CCC(=O)O)NC(=O)[C@H](CCC(N)=O)NC(=O)[C@@H](N)CO)[C@@H](C)CC)[C@@H](C)O)C(C)C)[C@@H](C)O)C(=O)N[C@@H](C)C(N)=O [[D-Glu^20]-oCRF] | – | significant lowering of blood pressure | EC50 ([1]; cultured rat pituitary cells, read-out: Concentration at which half-maximal responses are observed (ACTH and β-endorphin secretion)): ~0.17 nM; Potency relative to the native hormone ([1]; in vitro, compared against synthetic oCRF): about twice as potent as the native hormone; Secretory response to maximal concentrations ([1]; maximal (1-5 nM) concentrations): at a plateau level; Duration of potency in vivo ([2]; in vivo): longer duration of potency
5 | Bz-Ser-Leu-Asp-Leu-Thr-D-Phe-His-Leu-Leu-Arg-Glu-Val-Leu-Glu-Nle-Ala-Arg-Ala-Glu-Gln-Leu-Ala-Gln-Gln-Ala-D-His-Ser-Asn-Arg-Lys-Leu-Nle-Glu-Ile-Ile-NH2 | stimulates the secretion of ACTH and β-END-LI | very significant lowering of blood pressure | –
6 | H-D-Pro-Pro-Ile-Ser-Leu-Asp-Leu-Thr-D-Phe-His-Leu-Leu-Arg-Glu-Val-Leu-Glu- Nle-Ala-Arg-Ala-Glu-Gln-Leu-Ala-Gln-Gln-Ala-His-Ser-Asn-Arg-Lys-CML-Nle-Ile-Ile-NH2 | stimulates the secretion of ACTH and β-END-LI | very significant lowering of blood pressure | –
7 | H-SQEPPISLDLTFHLLREVL[dE][Nle]TK[dA]DQLAQQAHSNRKL[Nle]DIA-NH2 [[D-Glu^20, D-Ala^24, Nle^21,38]-oCRF] | stimulates the secretion of ACTH and β-END-LI | very significant lowering of blood pressure | –
8 | H-SQEPPISLDLTFHLLRE[Nle]L[dE][Nle]AKAEQEAEQA[dH]LNRLLLEEA-NH2 [[Nle^18,21, D-Glu^20, D-His^32]-AHC] | stimulates the secretion of ACTH and β-END-LI | very significant lowering of blood pressure | –
9 | H-SQEPPISLDLT[dF]HLLREML[dE]RAKAEQEAEQAALNRLLLEEA-NH2 [[D-Phe^12, D-Glu^20, Arg^21]-AHC] | stimulates the secretion of ACTH and β-END-LI | very significant lowering of blood pressure | –
10 | H-SQEPPISLDLT[dF]HLLRE[Nle]LE[Nle]AK[dA]EQEAEQAALNRLLLEEA-NH2 [[D-Phe^12, Nle^18,21, D-Ala^24]-AHC] | stimulates the secretion of ACTH and β-END-LI | very significant lowering of blood pressure | –
11 | H-SQ[dY]PPISLDLTFHLLRE[Nle]L[dE][Nva]AK[dA]EQEAEQAALNRLLLEEA-NH2 | stimulates the secretion of ACTH and β-END-LI | very significant lowering of blood pressure | –
12 | H-Ser-Gln-Glu-Pro-Pro-Ile-Ser-Leu-Asp-Leu-Thr-D-Phe-Glu-Leu-Leu-Arg-Glu-Met-T-Glu-Ile-Ala-Lys-Ala-Glu-Gln-Glu-Ala-Glu-Gln-Ala-Ala-Leu-Asn-Arg-Lys-Tyr-Leu-Glu-Glu-Val-NH2 | stimulates the secretion of ACTH and β-END-LI | very significant lowering of blood pressure | –
13 | H-Ser-Glu-Glu-Pro-Pro-Ile-Ser-Leu-Asp-Leu-Thr-D-Phe-Glu-Lue-Leu-Arg-Glu-Nle-Leu-Glu-Met-Glu-Orn-Ala-Glu-Lys-Glu-Ala-Glu-Gln-Ala-Ala-Leu-Asn-Arg-Leu-Leu-Leu-Glu-Glu-Ala-NH2 | stimulates the secretion of ACTH and β-END-LI | very significant lowering of blood pressure | –
14 | H-pGlu-Glu-Pro-Pro-Ile-Ser-Leu-Asp-:-Thr-D-Phe-His-Leu-Leu-Arg-Glu-Val-Leu-Glu-Met-Ala-Arg-D-Ala-Glu-Gln-Leu-Ala-Gln-Gln-Ala-His-Ser-Asn-Arg-Lys-Leu- Met-Glu-Ile-Ile-NH2 [[pGlu^2, D-Phe^12, D-Ala^24]-rCRF(2-41)] | stimulates the secretion of ACTH and β-END-LI | very significant lowering of blood pressure | –
15 | rCRF: rat CRF, homologous hentetracontapeptide of U.S. Pat. No. 4,489,163; same formula as human CRF (SEEPPISLDLTFHLLREVLEMARAEQLAQQAHSNRKLMEII; ends and bridges not checked; UniProt P01143 145-185, looked up) | – | – | Stimulation of ACTH and β-endorphin secretion / β-END-LI (background) [3]: stimulate ACTH and β-endorphin-like activities; Lowering of blood pressure (background) [4]: substantially lower blood pressure
